Reference: paper PMC9503459, “Antifungal Activity, Structural Stability, and Immunomodulatory Effects on Human Immune Cells of Defensin from the Lentil Lens culinaris” (Membranes, 2022)
Where “and” joins values, the source holds several entries; their conditions need not be identical. Equal entries are not always repeated. No end group written: not given here.

What was measured:
[1] = system: pepsin, trypsin, α-chymotrypsin; test: Simulated gastrointestinal digestion in vitro; format: in vitro ADME, porcine pepsin and trypsin, bovine α-chymotrypsin
Description: Digestive enzymes (porcine pepsin and trypsin, bovine α-chymotrypsin), model protein substrate bovine α-casein, and secondary anti-rabbit IgG polyclonal goat antibodies conjugated to HRP and 3,3′,5,5′-tetramethylbenzidine (TMB) substrates were purchased from Sigma-Aldrich (St. Louis, MO, USA). Synthetic lysophospholipids (lyso-palmitoyl phosphatidylcholine (LPPC), lyso-palmitoyl phosphatidylglycerol (LPPG)) were purchased from Avanti Polar Lipids (Alabaster, AL, USA).
Sensitivity of Lc-def to digestive enzymes was examined by simulation of its gastrointestinal digestion in vitro. Gastric digestion was performed for 2 h, using 50 ng of pepsin per 1 μg of preheated at 100 °C for 30 min and intact Lc-def in 0.1 M HCl, pH 2.0. For duodenal digestion, the pH of the mixture resulting from gastric digestion was adjusted to 8.0 by addition of ammonium bicarbonate. The obtained mixture was incubated for 24 h at 37 °C with 2.5 ng of trypsin and 10 ng of α-chymotrypsin per 1 μg of the defensin. The degree of proteolysis was monitored by SDS-PAGE and RP-HPLC. Gel analysis was performed using Gel Doc XR^+ imaging system (Bio-Rad, Hercules, CA, USA) and Image Lab Software v.6.1.0 (Bio-Rad, Hercules, CA, USA). Some independent experiments were performed in each case. The experiment with α-casein was carried out for comparison.

[2] = system: pro-inflammatory macrophages (Mφ1) from THP-1 cells; test: Cytokine response by multiplex xMAP, pro-inflammatory macrophages; format: cell-based, human; conditions: Mφ1 macrophages (THP-1), 2 µM, 24 h
Description: Colorectal adenocarcinoma Caco-2 cell line (ATCC HTB-37) was cultured in complete DMEM/F12 (1:1) medium containing 10% fetal bovine serum (FBS, Gibco) and 1X antibiotic-antimycotic solution (1XAAS, Invitrogen, Waltham, MA, USA). The acute monocytic leukemia THP-1 line (ATCC TIB-202) was cultured in complete RPMI-1640 medium, containing 10% FBS, 1XAAS, and […]. THP-1 cells were differentiated into pro-inflammatory macrophages (Mφ1) with phorbol 12-myristate 13-acetate (Sigma-Aldrich) for 24 h and subsequently polarized with lipopolysaccharide from E. coli (Sigma-Aldrich) and rhIFN-γ (Sigma-Aldrich) for another 48 h according to previously reported protocol. All cells were cultured in a humidified CO2 incubator (5% CO2, 37 °C). Primary peripheral blood mononuclear cells (PBMCs) collected from a healthy donor were purchased from American Type Culture Collection (ATCC PCS-800-011). CD4^+ T-helper and CD8^+ T cytotoxic cells were isolated from PBMCs by magnetic separation with mouse anti-human CD4-PE (clone 13B8.2, Beckman Coulter Diagnostics, Pasadena, CA, USA) and CD8-PE (clone REA734, Miltenyi Biotec, Bergisch Gladbach, Germany), Anti-PE MicroBeads (Miltenyi Biotec), and LS Separation Columns (Miltenyi Biotec). Isolated CD4^+ and CD8^+ cells were expanded separately with Dynabeads™ Human T-Expander CD3/CD28 (Gibco, Waltham, MA, USA) in RPMI-1640 supplemented with 10% FBS, 1XAAS and 100 U/mL rh-IL-2 (Gibco). Regulatory CD4^+ FoxP3^+ T cells (Tregs) were isolated from PBMCs by magnetic separation with CD4^+CD25^+ Regulatory T Cell Isolation Kit, human (Miltenyi Biotec). Primary CD14^+ blood monocytes were isolated from PBMCs by adherence according to standard technique. Monocyte-derived mature dendritic cells (moDCs) were obtained from CD14^+ blood monocytes according to the previously reported protocol. Briefly, blood monocytes were incubated in complete RPMI-1640 medium, containing 10% FBS, 1XAAS, 800 U/mL rhGM-CSF (Sci-Store, Russia, Moscow) and 500 U/mL rhIL-4 (Sci-Store) for 3 days. Fresh complete RPMI-1640 medium with rhGM-CSF and rhIL-4 was added to the culture on day 3. On day 5, fresh complete RPMI-1640 containing 100 U/mL rhTNF-α (Sigma) as well as 800 U/mL rhGM-CSF and 500 U/mL rhIL-4 was added and the culture was incubated for another 4 days until full maturation.
Caco-2 cells were seeded into the wells of a 48-well plate, coated with 0.1% bovine collagen (Sigma-Aldrich) for 24 h, 3 weeks before the experiment with complete DMEM/F12 (1:1) medium renewal every 2–3 days. Monocytes, moDCs, CD4^+ T-helper and CD8^+ T cytotoxic cells, Mφ1, and Regulatory CD4^+ FoxP3^+ T cells were seeded into the wells of 48-well plates in the complete RPMI-1640 medium supplemented with 10% Human AB serum (HABS, Capricorn Scientific, Ebsdorfergrund, Germany) and 1XAAS 24 h prior to the experiment; medium in Caco-2-containing wells was also replaced with the same medium. After 24 h, half of the medium in each well was replaced by fresh complete RPMI-1640 medium with 10% HABS, supplemented with 4 µM of Lc-def for the sample wells or fresh medium alone for the control wells. Cell cultures were kept in CO2-incubator (5% CO2, 37 °C) for another 24 h. Culture supernatants were collected 24 h later and stored at −70 °C degrees less than one month prior to the analytes assessment. […]

[3] = system: phytopathogenic filamentous fungi including Aspergillus niger; conditions: some, but not all, tested fungi including Aspergillus niger; cited from earlier work

Question: With “Lc-def: defensin from lentil Lens culinaris seeds (UniProt:B3F051), recombinant, overexpressed in Escherichia coli (KTCENLSDSFKGPCIPDGNCNKHCKEKEHLLSGRCRDDFRCWCTRNC; disulfide (positions not given here); ends not checked; also: disulfide bonds present, pairing not given here; UniProt B3F051 28-74, looked up)” as the substance, how does the “degradation after gastrointestinal digestion” value [1] read?
Answer: approximately 30%

Question: And the EGF [2]?
Answer: 2.32 pg/mL

Question: What about the Eotaxin [2] of the same substance?
Answer: <3.23↓ pg/ml

Question: What about the FGF-2 [2] of the same substance?
Answer: 16.21 pg/mL

Question: What about the FLT-3L [2] of the same substance?
Answer: 2.27 pg/mL

Question: And the Fractalkine [2]?
Answer: <23.19↓ pg/ml

Question: What about the G-CSF [2] of the same substance?
Answer: 1150 pg/mL

Question: What about the GM-CSF [2] of the same substance?
Answer: 74.32 pg/mL

Question: And the GROa [2]?
Answer: 545.96 pg/mL

Question: And the IFNa2 [2]?
Answer: 7.77 pg/mL

Question: And the IFNg [2]?
Answer: <1.99↓ pg/ml

Question: What about the IL-1RA [2] of the same substance?
Answer: 101.1 pg/mL

Question: What about the IL-1a [2] of the same substance?
Answer: 38.93 pg/mL

Question: And the IL-1b [2]?
Answer: 471.74 pg/mL

Question: And the IL-2 [2]?
Answer: <0.31↓ pg/ml

Question: And the IL-3 [2]?
Answer: <0.48↓ pg/ml

Question: And the IL-4 [2]?
Answer: 0.92 pg/mL

Question: What about the IL-5 [2] of the same substance?
Answer: <0.24↓ pg/ml

Question: What about the IL-6 [2] of the same substance?
Answer: 1022 pg/mL

Question: What about the IL-7 [2] of the same substance?
Answer: <0.33↓ pg/ml

Question: What about the IL-8 [2] of the same substance?
Answer: >17785↑ pg/ml

Question: What about the IL-9 [2] of the same substance?
Answer: <1.05↓ pg/ml

Question: And the IL-10 [2]?
Answer: 41.17 pg/mL

Question: And the “IL-12 (p40)” value [2]?
Answer: <3.02↓ pg/ml

Question: And the “IL-12 (p70)” value [2]?
Answer: 4.54 pg/mL

Question: What about the IL-13 [2] of the same substance?
Answer: 15.11 pg/mL

Question: What about the IL-15 [2] of the same substance?
Answer: <1.45↓ pg/ml

Question: And the IL-17A [2]?
Answer: <1.55↓ pg/ml

Question: What about the IL-17E/IL-25 [2] of the same substance?
Answer: <20.59↓ pg/ml

Question: And the IL-17F [2]?
Answer: <16.96↓ pg/ml

Question: And the IL-18 [2]?
Answer: 6.51 pg/mL

Question: What about the IL-22 [2] of the same substance?
Answer: 28.78 pg/mL

Question: And the IL-27 [2]?
Answer: 40.89 pg/mL

Question: And the IP-10 [2]?
Answer: <1.56↓ pg/ml

Question: What about the M-GSF [2] of the same substance?
Answer: <23.75↓ pg/ml

Question: And the MCP-1 [2]?
Answer: 259 pg/mL and 259.04 pg/mL

Question: What about the MCP-3 [2] of the same substance?
Answer: 8.66 pg/mL

Question: And the MDC [2]?
Answer: <0.35↓ pg/ml

Question: And the MIG [2]?
Answer: 124 pg/mL and 124.97 pg/mL

Question: What about the MIP-1a [2] of the same substance?
Answer: 2680 pg/mL

Question: What about the MIP-1b [2] of the same substance?
Answer: 413 pg/mL and 413.11 pg/mL

Question: What about the PDGF-AA [2] of the same substance?
Answer: 4181 pg/mL

Question: And the PDGF-AB/BB [2]?
Answer: <9.75↓ pg/ml

Question: And the RANTES [2]?
Answer: 23.61 pg/mL

Question: And the TGF-a [2]?
Answer: 0.89 pg/mL

Question: And the TNFa [2]?
Answer: 1942 pg/mL

Question: What about the TNFb [2] of the same substance?
Answer: 1.95 pg/mL

Question: And the VEGFa [2]?
Answer: 48.67 pg/mL

Question: What about the sCD40L [2] of the same substance?
Answer: 14.8 pg/mL

Question: What about the “activity against phytopathogenic filamentous fungi” value [3] of the same substance?
Answer: active
